This is an account of results in ChEMBL document CHEMBL1125236 (J Med Chem, 1991).

For assay [1], the system named is L1210. Kind of assay: Compound was evaluated for the growth inhibition of L1210 cells. Type of assay: functional, cell-based. The following applies: Mus musculus.
Assay [2] can be described thus: Compound was evaluated for growth inhibition of WI-L2 cells. It is filed as functional, cell-based. The following applies: Homo sapiens, WIL2.
The target of a further assay is T1, Dihydrofolate reductase (Homo sapiens, UniProt P00374).
T1 sequence (P00374 whole entry): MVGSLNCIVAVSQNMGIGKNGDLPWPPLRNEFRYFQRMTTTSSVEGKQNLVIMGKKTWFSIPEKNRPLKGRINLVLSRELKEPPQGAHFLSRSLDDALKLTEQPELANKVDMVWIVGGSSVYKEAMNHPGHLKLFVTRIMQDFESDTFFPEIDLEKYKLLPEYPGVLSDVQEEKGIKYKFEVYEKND

Assay [3] relates to L1210. The assay can be described thus: Antitumor activity (T/C) evaluated against L1210 leukemia from the median survival time of treated mice (T) over that of control mice (C) at a dose of 4 mg/kg. It is filed as functional, Mus musculus.
The test system of assay [4] is L1210. The assay can be described thus: Antitumor activity (T/C) evaluated against L1210 leukemia from the median survival time of treated mice (T) over that of control mice (C) at a dose of […] as experiment 1. Type of assay: functional, Mus musculus.
The test system of assay [5] is L1210. Kind of assay: Antitumor activity (T/C) evaluated against L1210 leukemia from the median survival time of treated mice (T) over that of control mice (C) at a dose of 1 mg/kg. Type of assay: functional, Mus musculus.
In assay [6] the test system is L1210. Kind of assay: Antitumor activity (T/C) evaluated against L1210 leukemia from the median survival time of treated mice (T) over that of control mice (C) at a dose of 0.75 mg/kg as experiment 3.

Where “and” joins values, the source holds several entries; their conditions need not be identical. Equal entries are not always repeated.

Description for Dihydrofolate reductase: Inhibition of dihydrofolate reductase (DHFR) from human cells (WI-L2/M4).

By IC50 is commonly meant the point on the concentration scale where inhibition reaches its midpoint. Low readings indicate greater potency, high ones weaker potency. Take `Nc1nc(N)c2nc(CNc3ccc(C(=O)NC(CCC(=O)Nc4cccc(C(=O)O)c4)C(=O)O)cc3)cnc2n1` (stereo not drawn): the IC50 was found to be 25 nM with L1210 [1], 6.1 nM in assay [2] and 32 nM on Dihydrofolate reductase.

Take `Nc1nc(N)c2nc(CNc3ccc(C(=O)N[C@@H](CCC(=O)O)C(=O)O)cc3)cnc2n1` [AMINOPTERIN]: inhibition in assay [2] was half-maximal at 7.1 nM (IC50).

In general, T/C refers to the ratio of treated to control. As for `CN(Cc1cnc2nc(N)nc(N)c2n1)c1ccc(C(=O)N[C@@H](CCC(=O)O)C(=O)O)cc1` [METHOTREXATE], the T/C with L1210 [3] is 175% and 188% and 200%; in the assay with L1210 [4] it was 213%; with L1210 [5], 188%; in the assay on L1210 [6], 175%.
